This is an account of results in patent US8257714B2, “Compositions and methods for immunotherapy of cancer and infectious diseases” (priority 2003, dated 2012).

Ends that are not written are not given here.

The subject of assay [1] is freshly isolated dendritic cells (CD11c+ splenocytes). The assay can be described thus: Dendritic cell (DC) assay: IL12 release from freshly isolated dendritic cells. Type of assay: cell-based, BALB/c mice. As to conditions: for DC mIL12 Release: tested for synergism and inhibition. From the text: In a preferred embodiment, dendritic cell (DC) assay is used to follow interleukin-12 (IL-12) release from freshly isolated dendritic cells as an index of DC activation (see section 12.3). […] Briefly, by way of example but not limitation, a DC assay can be carried out as follows: freshly isolated dendritic cells (CD11c^+ splenocytes, e.g., isolated from the spleens of BALB/c mice within ten hours of assaying the activity) are suspended at a density of 0.5×10^6 cells per mL in cytokine supplemented culture media (GM-CSF, 1.0 ng/ml; IL-4, 1.0 ng/ml; IFNg, 3.0 ng/ml; anti mouse CD40, 0.5 mg/ml). […] Mouse IL-12 release from the dendritic cells (CD11c^+ splenocytes) is then measured using ELISA.
To follow the activity in semi-purified preparations of BEX, an assay which follows IL12 release from freshly isolated dendritic cells (DCs) as an index of DC activation was developed. This activity is highly correlated with both NK-CMC in vitro and anti-tumor activity in vivo.
DCs were isolated from the spleens of male BALB/c mice 8-12 weeks of age (Harlan Bioproducts for Science, Indianapolis, Ind.), using the magnetic assisted cell separation (MACS) system purchased from Miltenyi Biotech. In summary: Spleens were aseptically removed from mice and placed into a petri dish containing 5 mL holding media (DMEM/F12 supplemented with 10% FCS and antibiotics). Each spleen was then injected with ˜0.5 mls collagenase D solution (1 mg/mL in 10 mM Hepes-NaOH, pH 7.4, 150 mM NaCl, 5 mM MgCl2, 1.8 mM CaCl2), placed into 5-10 mL collagenase D, cut into 5-6 pieces and incubated at 37° C. for 45-60 min. Collagenase-digested spleens were then processed with glass slides and passed through a 70 μm nylon mesh cell strainer. After the strainer was flushed with 40 mL culture media, cells were centrifuged (8 min @ 200×G), suspended in 1 mL PBS and subjected to red blood cell lysis by incubating the cell suspension for 5 min at room temperature in 10 mL lysis buffer (155 mM NH4Cl, 10 mM KHCO3, 0.1 mM EDTA), followed by dilution in PBS to 50 mL and centrifugation (8 min @ 200×g). The splenocytes were then suspended in 10 mL MACS buffer (PBS pH 7.2, supplemented with 2 mM EDTA and 0.5% BSA), passed through a 40 μm nylon mesh cell strainer which was flushed with 40 mL MACS buffer. A preliminary cell count was taken at this time, prior to centrifugation (8 min @ 200×G). The splenocytes were suspended at a density of 10^8 cells per 400 μL MACS buffer. Paramagnetic MicroBeads coated with anti-CD11c^+ antibody were mixed with the splenocyte suspension (100 μL per 10^8 cells), incubated at +4° C. for 15 min, washed, suspended in 1.0 mL MACS buffer and passed through a MS+ separation column placed within a strong magnetic field. CD11c^+ cells were retained in the column whereas CD11c^− cells were washed off the column as the flow-through cell fraction. CD11c^+ cells were then collected by removing the column out of the magnetic field and flushing the column twice with 1 mL of MACS buffer. CD11c^+ cells were washed once with culture media and suspended at a density of 0.5×10^6 cells per mL in cytokine supplemented culture media {DMEM/F12 supplemented with 10% FCS and gentamicin containing mouse GM-CSF (1 ng/mL), mouse IL-4 (1 ng/mL), mouse IFNγ (3 ng/mL) and anti mouse CD40 (0.5 mg/mL)}.
Mouse IL12 release from CD11c^+ splenocytes was measured using ELISA. Briefly, CD11c+ cell culture supernatants were sampled following an overnight incubation (usually 15-18 hrs). Media samples ([…]) were added to ELISA plates coated with anti mouse IL12 (p70) capture antibody (R&D #MAB419; 250 ng in 100 μL per well) and incubated either at 37° C. or room temperature for 2 hrs. The ELISA plates were washed extensively with wash buffer after which 100 μL per well of detection antibody/detection reagent (biotinylated anti-mouse IL12; R&D #BAF419 at 50 ng/mL and streptavidin-HRP) was added. […]

A further assay has as its system Mouse sarcoma 180 cells. Nature of the assay: NK cell-mediated cytotoxicity (NK-CMC) assay, LGL/S180 co-culture. Type of assay: cell-based. The following applies: wide range of concentrations, presence and absence of IL-2 (125 U/ml). The protocol:
In one embodiment, a NK cell assay is used to assess ARP-induced cytotoxic activity of NK-like cells (see section 12.2). Briefly, by way of example but not limitation, a NK cell assay can be carried out as follows: large granular lymphocytes (LGLs) are co-cultured with tumor cells at various ratios (effector to target ratio) for four days at 37° C., 5% CO2. […] The culture is terminated at the end of day 4 and vitally stained using a MTT cell viability quantification assay (see Mossman, T. J. Immunol. Methods 65: 55 (1983); and Sigma Chemical MTT (M5655) product application note). Culture media is aspirated and the remaining cells are washed and replaced with DMEM/F12 plus FCS, containing MTT. The cells are further incubated for 4-5 hours at 37° C. Absorbance is measured with the aid of a plate reader. Decreased absorbance indicated a decrease in the number of viable cells per well (i.e., cytotoxicity). Absorbance is measured again after the MTT is solubilized by replacement of the medium with 2-propanol containing HCl, which gives a uniform color throughout the well. NK-inducing activity is calculated relative to negative (PBS/BSA) and positive (internal standard) controls.
Spleens (10-15 per experiment) were aseptically removed from male Balb/C mice 6-10 weeks of age. Splenocytes were “squeezed” out of spleens using 2 sterile glass microscope slides. Cells were collected in approximately 10 ml of DMEM/F 12 containing 10% fetal calf serum (FCS) and gentamicin (50 μg/ml). Single cell suspensions were generated by passing collected cells through a 70 μm nylon mesh screen. After washing the cell pellet once with PBS (centrifuged at 675×g for 5 min), red blood cells were lysed by brief hypotonic shock (i.e. exposure to sterile distilled, deionized water, followed immediately with appropriate volumes of 10×PBS to return to isotonicity). Remaining cells were centrifuged and resuspended in DMEM/F12+10% FCS and transferred to 75 cm^2 flasks each containing 25 mls DMEM/F12+10% FCS (cells from 5 spleens per flask). The cells were incubated for 60 min. at 37° C. to selectively remove readily adherent cells (mainly fibroblasts and macrophages). After the incubation, the flasks were gently shaken and the non-adherent cells were removed, pelleted by centrifugation, and resuspended in DMEM/F12 (no supplements) (1.0 mL/10^8 cells). A 1.0 mL volume of these cell suspensions were carefully layered onto a 70%/60%/40% (2 mL/4 mL/4 mL) Percoll™ gradients in 15 ml centrifuge tubes and centrifuged for 30 min at 675×G. The cells which sediment at the 40/60 interface represent primarily large granular lymphocytes (LGLs), enriched with NK cells. These cells were carefully removed with a pasteur pipet, centrifuged, washed once with PBS and resuspended in approximately 5 mL DMEM/F12 supplemented with gentamicin (50 μg/mL) and 10% fetal calf serum. Cell counts and appropriate dilutions of LGL cells were made with these cells, as described below. For convenience this LGL cell preparation is interchangeably referred to as NK cells.
Mouse sarcoma 180 cells were seeded into 96 well plates at a density of 5×10^3 cells per well in 100 μl DMEM/F12, supplemented with 10% FCS and gentamicin (50 μg/mL). […] NK cells were added in 100 μL of supplemented DMEM/F12 at designated densities: 0 NK cells/well; 5×10^4 NK cells/well (1:10 target/effector ratio); 1.25×10^5 NK cells/well (1:25 target/effector ratio); 2.5×10^5 NK cells/well (1:50 target/effector ratio); and, 5×10^5 NK cells/well (1:100 target/effector ratio). (Note: routinely, only the 1:50 and 1:100 ratios were used for screening purposes. IL2 was added as a media supplement with final concentration of 125 U/mL.). Co-cultures were incubated for 4 days at 37° C., 5% CO2, and terminated and vitally stained using a MTT cell viability quantification assay (see Mossman, T. J. Immunol. Methods 65:55 (1983); and Sigma Chemical MTT (M5655) product application note). […]

As to IL-1 β: interleukin, in assay [1], the “DC mIL12 Release” value is recorded as “−”. In addition, the “NK-CMC Activity” value in the assay with Mouse sarcoma 180 cells was “−^3”.
In the case of `N[C@@H](CCC(=O)N[C@@H](CS)C(=O)NCC(=O)O)C(=O)O` [reduced glutathione], the “effect on responses in the DC assay” value in assay [1] (excess added to the assay system) is reported as “lowered the responses”.
Take “Cecropin A: defensin / anti-microbial peptide (KWKLFKKIEKVGQNIRDGIIKAGPAVAVVGQATQIAK; UniProt P01507 27-63, looked up)”: the “NK-CMC Activity” value in the assay on Mouse sarcoma 180 cells is listed as “−”.
On the same count and under the same terms, in the case of “Cecropin B: defensin / anti-microbial peptide (KWKVFKKIEKMGRNIRNGIVKAGPAIAVLGEAKAL; ends and bridges not checked; UniProt P01508 27-61, looked up)” it was “−”; in that of Cecropin P1, “−”.
On to TNF α, for which the “DC mIL12 Release” value in assay [1] is reported as “−”.
Consider TGF β, for which the “DC mIL12 Release” value in assay [1] is listed as “−”. In addition, the “NK-CMC Activity” value in the assay on Mouse sarcoma 180 cells is “−”.
With IFN α, the “NK-CMC Activity” value in the assay on Mouse sarcoma 180 cells is reported as “−”.
Take “truncated molecule lacking GEADTQAWDTSVREWLVDT: E. tenella ARP with start codon moved to the 21th position (listed as Eimeria tenella)”: in assay [1] (recombinant E. tenella ARP variants), the “DC-activity compared to full-length ARP” value is “activity was lost”.
IL-15: interleukin: the “NK-CMC Activity” value with Mouse sarcoma 180 cells is reported as “−”.
On the same count and under the same terms, the entry for Magainin I is “−”; for Magainin II it is “−”.
Turning to IL-5: interleukin, the “DC mIL12 Release” value in assay [1] is “−”. Also, the “NK-CMC Activity” value in the assay on Mouse sarcoma 180 cells is “−”.
For FGFbasic: growth factor, the “DC mIL12 Release” value in assay [1] is on record as “−”. In addition, the “NK-CMC Activity” value with Mouse sarcoma 180 cells is on record as “−”.
Regarding TGF α: growth factor, the “NK-CMC Activity” value in the assay on Mouse sarcoma 180 cells is “−”.
Take IL-6: interleukin: the “DC mIL12 Release” value in assay [1] is “−”. In the assay with Mouse sarcoma 180 cells, the “NK-CMC Activity” value is recorded as “−”.
In the case of JE/MCP-1: chemokine, the “NK-CMC Activity” value in the assay on Mouse sarcoma 180 cells was “−”.

B1: IL-11: interleukin (protein, UniProt P20809 22-199, looked up)
Interleukin-11: PGPPPGPPRVSPDPRAELDSTVLLTRSLLADTRQLAAQLRDKFPADGDHNLDSLPTLAMSAGALGALQLPGVLTRLRADLLSYLRHVQWLRRAGGSSLKTLEPELGTLQARLDRLLRRLQLLMSRLALPQPPPDPPAPPLAPPSSAWGGIRAAHAILGGLHLTLDWAVRGLLLLKTRL
For the molecule B1, in the assay with Mouse sarcoma 180 cells, the “NK-CMC Activity” value was “−”.

B2: KC: chemokine (protein, UniProt P12850 25-96, looked up)
Growth-regulated alpha protein: APIANELRCQCLQTMAGIHLKNIQSLKVLPSGPHCTQTEVIATLKNGREACLDPEAPLVQKIVQKMLKGVPK
Turning to B2, the “NK-CMC Activity” value in the assay on Mouse sarcoma 180 cells is “−”.

B3: IL-18: interleukin (protein, UniProt P70380 36-192, looked up)
Interleukin-18: NFGRLHCTTAVIRNINDQVLFVDKRQPVFEDMTDIDQSASEPQTRLIIYMYKDSEVRGLAVTLSVKDSKMSTLSCKNKIISFEEMDPPENIDDIQSDLIFFQKRVPGHNKMEFESSLYEGHFLACQKEDDAFKLILKKKDENGDKSVMFTLTNLHQS
On to B3, for which, in assay [1], the “DC mIL12 Release” value was “−”.

B4: MIP-1 α: chemokine (protein, UniProt P10147 24-92, looked up)
C-C motif chemokine 3: SLAADTPTACCFSYTSRQIPQNFIADYFETSSQCSKPGVIFLTKRSRQVCADPSEEWVQKYVSDLELSA
On to B4, for which, in the assay on Mouse sarcoma 180 cells, the “NK-CMC Activity” value is listed as “−”.

B5: IL-4: interleukin (protein, UniProt P07750 21-140, looked up)
Interleukin-4: HIHGCDKNHLREIIGILNEVTGEGTPCTEMDVPNVLTATKNTTESELVCRASKVLRIFYLKHGKTPCLKKNSSVLMELQRLFRAFRCLDSSISCTMNESKSTSLKDFLESLKSIMQMDYS
On to B5, for which, in the assay with Mouse sarcoma 180 cells, the “NK-CMC Activity” value is on record as “−”.

B6: IL-7: interleukin (protein, UniProt P10168 26-154, looked up)
Interleukin-7: ECHIKDKEGKAYESVLMISIDELDKMTGTDSNCPNNEPNFFRKHVCDDTKEAAFLNRAARKLKQFLKMNISEEFNVHLLTVSQGTQTLVNCTSKEEKNVKEQKKNDACFLKRLLREIKTCWNKILKGSI
B6: the “NK-CMC Activity” value in the assay on Mouse sarcoma 180 cells is reported as “−”.

B7: IL-2: Interleukin 2 (protein, UniProt P04351 21-169, looked up)
Interleukin-2: APTSSSTSSSTAEAQQQQQQQQQQQQHLEQLLMDLQELLSRMENYRNLKLPRMLTFKFYLPKQATELKDLQCLEDELGPLRHVLDLTQSKSFQLEDAENFISNIRVTVVKLKGSDNTFECQFDDESATVVDFLRRWIAFCQSIISTSPQ
With B7, the “DC mIL12 Release” value in assay [1] is “−”.
